{"source": "patent US20070014721A1", "about": "“Hydrazide conjugates as imaging agents” (priority 2005, published 2007)", "key": {"[1]": {"system": "aorta of apolipoprotein E (apoE) knockout mouse", "conditions": "in vivo", "procedure": "(§1) Mice were fed a high-fat diet to accelerate plaque formation and compounds were tested in the mice between 37-41 weeks on diet. Test compounds were radiolabeled (^14C, ^99mTc, or ^111In as described above) and administered at 0.02-4.0 mCi/kg to anesthetized mice in a single, bolus injection via the tail vein. Blood samples were collected via the tail between 0-30 minutes postinjection for pharmacokinetic analysis and mice were euthanized by CO2 at 60 minutes for tissue harvesting. The aorta were flushed with saline through the left ventricle exiting via the femoral vein. The aorta were then removed from the heart to the renal bifurcation and additional tissue samples collected (blood, muscle, liver, kidney, heart, lung, spleen and innominate artery). All samples were weighed and assayed for radioactivity. Tissue uptake is expressed as percent of injected dose per gram of tissue (% ID/g). The aorta to blood ratios were calculated from the % ID/g data."}, "[2]": {"conditions": "mouse, in vivo, iv", "procedure": "as §1"}}, "note": "*1 amine or outer side, *2 acyl side, *3 side chain or, on linkers, in order; H or OH if unused. Where a SMILES comes first, the peptide text is derived from it. [ ]: non-standard residue; d: D form. The star is where a group is joined. PABC = O=C(OCc1ccc(N[*:1])cc1)[*:2]; hPhe = N[C@@H](CCc1ccccc1)C(=O)O; Boc = CC(C)(C)OC(=O)*; Nlys = NCCCCNCC(=O)O; X2 = CC(=O)NN*", "data": [{"smiles": "CC(=O)NNC(=O)[C@@H](CC(C)C)NC(=O)OCc1ccc(NC(=O)[C@H](CC(C)C)NC(=O)[C@H](CCc2ccccc2)NC(=O)CN(CCCCNC(=O)OC(C)(C)C)C(=O)[C@H](CC(C)C)NC(=O)[C@@H]2CCCN2C(C)=O)cc1", "note": "[Example 142] (Ac-PL[Nlys](Boc)[hPhe]L[PABC][dL]-X2)", "values": [{"measurement": "Aorta/Blood Ratio", "setting": "[1]", "value": 1.9}, {"measurement": "tissue uptake at 1 h", "setting": "[2]", "value": 2.1, "unit": "%ID/g"}]}]}
